This test concerns the target Peroxisome proliferator-activated receptor gamma (Homo sapiens) (UniProt P37231). As to the kind of experiment: Effective concentration for human peroxisome proliferator-activated receptor gamma.

Broadly, the EC50 is the concentration needed to bring the measured effect to its halfway point. A low value points to an effect from little substance. `CCO[C@@H](Cc1ccc(O/C=C\Oc2ccc(C[C@@H](OCC)C(=O)O)cc2)cc1)C(=O)O` [(S)-3-(4-{(Z)-2-[4-((R)-2-Carboxy-2-ethoxy-ethyl)-phenoxy]-vinyloxy}-phenyl)-2-ethoxy-propionic acid]: the EC50 was determined as 15 µM. Next, `CCO[C@@H](Cc1ccc(OCc2ccc(COc3ccc(C[C@H](OCC)C(=O)O)cc3)cc2)cc1)C(=O)O` [(S)-3-(4-{4-[4-((S)-2-Carboxy-2-ethoxy-ethyl)-phenoxymethyl]-benzyloxy}-phenyl)-2-ethoxy-propionic acid]: 14 µM.

In turn, `CCO[C@@H](Cc1ccc(OC/C=C(/C)C#Cc2ccccc2)cc1)C(=O)O` [(S)-2-Ethoxy-3-[4-((Z)-3-methyl-5-phenyl-pent-2-en-4-ynyloxy)-phenyl]-propionic acid] gave a 50% effective concentration (EC50) of 0.6 µM.

Source of the values: BindingDB's records for doi:10.1016/j.bmcl.2004.12.084 (Novo Nordisk, 2005).
